Columns and labels:
[1] = molecular target: CysM (O-acetylserine sulfhydrylase) (Salmonella enterica, UniProt P29848); test: recombinant enzyme, H2S consumption by HSip-1 fluorescence; confirmed by LC-MS/MS of cysteine production; assay type: biochemical
[2] = molecular target: CysK (O-acetylserine sulfhydrylase) (Salmonella enterica, UniProt P0A1E3); test: as above; assay type: biochemical
Sequence of CysK (O-acetylserine sulfhydrylase) (P0A1E3 2-323): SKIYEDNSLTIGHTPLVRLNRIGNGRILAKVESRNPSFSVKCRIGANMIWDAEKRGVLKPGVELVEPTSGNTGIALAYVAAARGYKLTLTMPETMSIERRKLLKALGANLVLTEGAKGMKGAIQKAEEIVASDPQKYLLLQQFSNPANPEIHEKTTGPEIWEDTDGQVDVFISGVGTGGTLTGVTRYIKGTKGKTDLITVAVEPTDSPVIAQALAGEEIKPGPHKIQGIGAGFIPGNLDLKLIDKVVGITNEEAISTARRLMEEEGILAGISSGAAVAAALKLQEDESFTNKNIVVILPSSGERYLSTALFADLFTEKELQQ

Sequence of CysM (O-acetylserine sulfhydrylase) (P29848 whole entry): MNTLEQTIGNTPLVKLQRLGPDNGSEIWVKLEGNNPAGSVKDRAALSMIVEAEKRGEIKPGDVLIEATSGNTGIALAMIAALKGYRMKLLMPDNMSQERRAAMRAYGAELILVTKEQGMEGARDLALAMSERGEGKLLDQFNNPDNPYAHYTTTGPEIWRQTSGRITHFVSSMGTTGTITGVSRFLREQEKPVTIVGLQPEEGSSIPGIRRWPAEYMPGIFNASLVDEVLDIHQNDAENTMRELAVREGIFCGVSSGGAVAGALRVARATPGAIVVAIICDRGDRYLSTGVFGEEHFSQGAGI

Which results are given for `CN1C(=O)[C@]23CC4=CC=C[C@H](O)[C@H]4N2C(=O)[C@@]1(CO)SS3` [compound 1, gliotoxin]?
IC50 [1]: ~3 µM; IC50 [2]: ~3 µM

— publication PMC11818871, “Identification of Fungal Metabolite Gliotoxin as a Potent Inhibitor Against Bacterial O-Acetylserine Sulfhydrylase CysK and CysM” (International Journal of Molecular Sciences, 2025)
